The target of experiment [1] is Endothelial lipase (EL) (Homo sapiens (Human), UniProt Q9Y5X9). Nature of the experiment: EL assay: endothelial lipase activity with fluorescent substrate A10070 in DMPG vesicles. It counts as biochemical. In outline:
(§1)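 Compounds were preincubated with enzyme for 30 min at 37° C before FRET-substrate vesicles (A10070 in DMPG, 0.11 mole fraction) were added. Reaction rates were obtained from the 300–900 sec slope of fluorescence at 490/530 nm.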

In experiment [2] the target is hepatic lipase (HL) (Homo sapiens (Human), UniProt P11150). Nature of the experiment: HL assay: hepatic lipase activity with fluorescent substrate A10070 in DMPG vesicles. The experiment is classed as biochemical. In outline:
as §1

By IC50 is commonly meant the point on the concentration scale where inhibition reaches its midpoint.

Like-named read-outs stand apart in the source and are kept apart here.

Chain of Endothelial lipase (EL) (Q9Y5X9 21-500): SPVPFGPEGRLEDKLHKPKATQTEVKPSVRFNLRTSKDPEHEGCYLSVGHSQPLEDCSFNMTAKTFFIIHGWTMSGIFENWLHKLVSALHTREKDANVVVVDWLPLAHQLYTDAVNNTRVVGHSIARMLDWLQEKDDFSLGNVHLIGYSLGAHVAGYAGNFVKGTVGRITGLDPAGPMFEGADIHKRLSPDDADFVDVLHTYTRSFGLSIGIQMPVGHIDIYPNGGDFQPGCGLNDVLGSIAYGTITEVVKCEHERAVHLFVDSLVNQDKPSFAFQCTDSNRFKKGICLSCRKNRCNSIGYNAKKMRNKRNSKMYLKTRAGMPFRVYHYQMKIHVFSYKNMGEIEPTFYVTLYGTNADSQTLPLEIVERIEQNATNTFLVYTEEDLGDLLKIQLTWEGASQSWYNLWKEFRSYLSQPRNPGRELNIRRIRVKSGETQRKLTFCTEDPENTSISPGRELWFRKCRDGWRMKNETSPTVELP
Chain of hepatic lipase (HL) (P11150 23-499, species assumed): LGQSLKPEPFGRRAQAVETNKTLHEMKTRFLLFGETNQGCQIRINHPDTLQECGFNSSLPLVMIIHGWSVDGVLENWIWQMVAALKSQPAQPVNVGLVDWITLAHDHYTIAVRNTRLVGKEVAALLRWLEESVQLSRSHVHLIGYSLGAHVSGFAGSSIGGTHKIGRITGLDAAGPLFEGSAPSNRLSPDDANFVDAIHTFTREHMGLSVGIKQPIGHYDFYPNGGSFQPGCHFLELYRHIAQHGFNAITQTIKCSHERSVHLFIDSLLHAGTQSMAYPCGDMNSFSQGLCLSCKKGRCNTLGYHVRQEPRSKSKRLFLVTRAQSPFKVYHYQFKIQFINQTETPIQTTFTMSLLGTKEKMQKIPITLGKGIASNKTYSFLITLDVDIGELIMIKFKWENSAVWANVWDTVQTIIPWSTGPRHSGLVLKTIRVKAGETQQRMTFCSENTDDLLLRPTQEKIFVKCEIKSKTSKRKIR

Take `Cc1nnc(CNC(=O)C(c2nc3cc(C)c(-c4ccc(C(=O)N5CCOCC5)cc4)cc3s2)S(=O)(=O)Cc2ccccc2)o1` (centres unmarked) [Example B96, 2-(benzylsulfonyl)-2-(5-methyl-6-(4-(4-morpholinylcarbonyl)phen-yl)-1,3-benzothiazol-2-yl)-N-((5-methyl-1,3,4-oxadiazol-2-yl)methyl)a-cetamide]: the IC50 in experiment [1] turned out to be 27 nM; in experiment [2], 251 nM.
On the same counts, the results for `CS(=O)(=O)C(C(=O)NCCS(N)(=O)=O)c1nc2ccc(-c3cnn(CCN4CCOCC4)c3)cc2s1` (centres unmarked) [Example B34, 2-(methylsulfonyl)-2-(6-(1-(2-(4-morpholinyl)ethyl)-1H-pyrazol-4-yl)-1,3-benzothiazol-2-yl)-N-(2-sulfamoylethyl)acetamide] are below 10 nM and 313 nM.
On the same counts, the results for `COCc1cccc(-c2ccc3nc(C(C(=O)NCCS(N)(=O)=O)S(C)(=O)=O)sc3c2)c1` (centres unmarked) [Example B215, 2-methanesulfonyl-2-{6-[3-(methoxymethyl)phen-yl]-1,3-benzothiazol-2-yl}-N-(2-sulfamoylethyl)a-cetamide] are 4.4 nM and 3.6 nM.
On to `CS(=O)(=O)C(C(=O)NCCS(N)(=O)=O)c1nc2ccc(-c3ccc(CCO)cc3)cc2s1` (centres unmarked) [Example B47, 2-(6-(4-(2-hydroxyethyl)phenyl)-1,3-benzothiazol-2-yl)-2-(methylsulfonyl)-N-(2-sulfamoylethyl)acetamide], for which the IC50 is below 10 nM in experiment [1] and 35 nM in experiment [2].
On the same counts, the results for `COCCN(C)C(=O)c1ccc(-c2ccc3nc(C(C(=O)NCCS(N)(=O)=O)S(=O)(=O)CCC(F)(F)F)sc3c2)cc1` (centres unmarked) [Example B290, N-(2-methoxyethyl)-N-methyl-4-(2-{[(2-sulfa-moylethyl)carbamoyl](3,3,3-trifluoropropane-sulfonyl)methyl}-1,3-benzothiazol-6-yl)ben-zamide] are 12.1 nM and 114 nM.
`CC(=O)Nc1ccc(-c2ccc3sc(C(C(=O)NCCS(N)(=O)=O)S(C)(=O)=O)nc3c2)cc1` (centres unmarked) [Example B371, 2-[5-(4-acetamidophenyl)-1,3-benzothiazol-2-yl]-2-methanesulfonyl-N-(2-sulfamoylethyl)acetamide]: the IC50 in experiment [1] was found to be 3 nM; in experiment [2], 96.3 nM.
As to `COCCS(=O)(=O)C(C(=O)NCc1nnc(C)o1)c1nc2cc(F)c(-c3ccc(C(=O)N4CCCC4)cc3)cc2s1` (centres unmarked) [Example B262, 2-{5-fluoro-6-[4-(pyrrolidine-1-carbonyl)phen-yl]-1,3-benzothiazol-2-yl}-2-(2-methoxy-ethanesulfonyl)-N-[(5-methyl-1,3,4-oxadiazol-2-yl)methyl]acetamide], the IC50 was determined as 102 nM in experiment [1] and 374 nM in experiment [2].
For `NS(=O)(=O)CCNC(=O)C(c1nc2ccc(-c3ccccc3)cc2s1)S(=O)(=O)CCC(F)(F)F` (centres unmarked) [Example B284, 2-(6-phenyl-1,3-benzothiazol-2-yl)-N-(2-sulfamoylethyl)-2-(3,3,3-trifluoropropanesulfonyl)a-cetamide], the IC50 was found to be 6.8 nM in experiment [1] and 2.6 nM in experiment [2].
Consider `Cc1cc2nc(C(C(=O)NCCS(N)(=O)=O)S(=O)(=O)CCC(F)(F)F)sc2cc1-c1ccc(F)nc1` (centres unmarked) [Example B130, 2-(6-(6-fluoro-3-pyridinyl)-5-methyl-1,3-benzothiazol-2-yl)-2-(3,3,3-trifluoropropyl-sulfonyl)-N-(2-sulfamoylethyl)acetamide], for which the IC50 in experiment [1] is below 10 nM; in experiment [2], 13 nM.
In the case of `CS(=O)(=O)C(C(=O)NCCS(N)(=O)=O)c1nc2ccc(-c3cnn(C4CCNCC4)c3)cc2s1` (centres unmarked) [Example B98, 2-(Methylsulfonyl)-2-(6-(1-(4-piperidinyl)-1H-pyrazol-4-yl)-1,3-benzothiazol-2-yl)-N-(2-sulfamoylethyl)acetamide], the concentration for half-maximal inhibition (IC50) in experiment [1] (EL from conditioned media of HT-1080 cells, 30 min incubation with compound at 37° C., A10070/DMPG vesicles) is below 10 nM; in experiment [2] (HL partially purified from conditioned media of COS cells, 30 min incubation with compound at 37° C., A10070/DMPG vesicles), 464 nM.
Regarding `Cc1cc2nc(C(C(=O)NCCS(N)(=O)=O)S(=O)(=O)Cc3ccccc3)sc2cc1-c1ccc(C(=O)N2CCOCC2)cc1` (centres unmarked) [Example B346, 2-{5-methyl-6-[4-(morpholine-4-carbon-yl)phenyl]-1,3-benzothiazol-2-yl}-2-phenylmethane-sulfonyl-N-(2-sulfamoylethyl)acetamide], the IC50 in experiment [1] stood at 5.3 nM; in experiment [2] it was 400 nM.
For `Cn1ccc(-c2ccc3nc(C(C(=O)NCCS(N)(=O)=O)S(=O)(=O)Cc4ccc(C(F)(F)F)cc4)sc3c2)cc1=O` (centres unmarked) [Example B364, 2-[6-(1-methyl-2-oxo-1,2-dihydropyridin-4-yl)-1,3-benzothiazol-2-yl]-N-(2-sulfamoylethyl)-2-{[4-(trifluoromethyl)phen-yl]methanesulfonyl}a-cetamide] the same measures were 28.3 nM and 10000 nM.
As for `Cn1cc(-c2cc3sc(C(C(=O)NCCS(N)(=O)=O)S(=O)(=O)Cc4ccccc4)nc3cc2F)cn1` (centres unmarked) [Example B138, 2-(benzylsulfonyl)-2-(5-fluoro-6-(1-methyl-1H-pyrazol-4-yl)-1,3-benzothiazol-2-yl)-N-(2-sulfamoylethyl)acetamide], the IC50 in experiment [1] is below 10 nM; in experiment [2], 142 nM.
With `CC(C)(O)CNC(=O)c1ccc(-c2ccc3nc(C(C(=O)NCCS(N)(=O)=O)S(C)(=O)=O)sc3c2)cc1` (centres unmarked) [Example B241, N-(2-hydroxy-2-methyl-propyl)-4-(2-{methane-sulfonyl[(2-sulfamoyl-ethyl)carbamoyl]methyl}-1,3-benzothiazol-6-yl)ben-zamide], the IC50 in experiment [1] was 6.4 nM; in experiment [2], 607 nM.
On to `CS(=O)(=O)C(C(=O)NCCS(N)(=O)=O)c1nc2ccc(-c3ccc4c(c3)C(=O)NC4)cc2s1` (centres unmarked) [Example B181, 2-(methylsulfonyl)-2-(6-(3-oxo-2,3-dihydro-1H-isoindol-5-yl)-1,3-benzothiazol-2-yl)-N-(2-sulfamoylethyl)acetamide], for which the IC50 in experiment [1] is below 10 nM; in experiment [2], 145 nM.
On to `Cn1ccc(-c2ccc3nc(C(C(=O)NCCS(N)(=O)=O)S(=O)(=O)CCC(F)(F)F)sc3c2)cc1=O` (centres unmarked) [Example B145, 2-(6-(1-methyl-2-oxo-1,2-dihydro-4-pyridinyl)-1,3-benzothiazol-2-yl)-N-(2-sulfamoylethyl)-2-((3,3,3-trifluoropropyl)sulfonyl)a-cetamide], for which the IC50 in experiment [1] was below 10 nM; in experiment [2] it was 362 nM.
Take `COCCNC(=O)c1cccc(-c2ccc3nc(C(C(=O)NCCS(N)(=O)=O)S(=O)(=O)CCC(F)(F)F)sc3c2)c1` (centres unmarked) [Example B179, N-(2-Methoxyethyl)-3-(2-(2-oxo-2-((2-sulfamoyl-ethyl)amino)-1-((3,3,3-trifluoropropyl)sulfonyl)eth-yl)benzo[d]thiazol-6-yl)benzamide]: the IC50 in experiment [1] stood at 24 nM; in experiment [2], 170 nM.
For `CS(=O)(=O)C(C(=O)NCCS(N)(=O)=O)c1nc2ccc(-c3cccc(Cl)c3)cc2s1` (centres unmarked) [Example B208, 2-[6-(3-chlorophenyl)-1,3-benzothiazol-2-yl]-2-methanesulfonyl-N-(2-sulfamoylethyl)acetamide], the concentration for half-maximal inhibition (IC50) in experiment [1] and in experiment [2] was 0.8 nM in each case.
Turning to `NS(=O)(=O)CCNC(=O)C(c1nc2ccc(-c3ccc(C(=O)N4CCOCC4)cc3)cc2s1)S(=O)(=O)CC1CC1` (centres unmarked) [Example B111, 2-((cyclopropylmethyl)sul-fonyl)-2-(6-(4-(4-morpholinylcarbonyl)phen-yl)-1,3-benzothiazol-2-yl)-N-(2-sulfamoylethyl)a-cetamide], the IC50 in experiment [1] is below 10 nM; in experiment [2], 1460 nM.
On to `CC1(O)CN(C(=O)c2ccc(-c3ccc4nc(C(C(N)=O)S(=O)(=O)Cc5ccc(OC(F)(F)F)cc5)sc4c3)cc2)C1` (centres unmarked) [Example B362, 2-{6-[4-(3-hydroxy-3-methylazetidine-1-carbonyl)phenyl]-1,3-benzothiazol-2-yl}-2-{[4-(trifluoromethoxy)phen-yl]methanesulfonyl}a-cetamide], for which the IC50 in experiment [1] was 158 nM; in experiment [2], 30.3 nM.
Consider `COc1cc(-c2ccc3nc(C(C(=O)NCCS(N)(=O)=O)S(C)(=O)=O)sc3c2)c(F)cn1` (centres unmarked) [Example B142, 2-(6-(5-fluoro-2-methoxy-4-pyridinyl)-1,3-benzothiazol-2-yl)-2-(methylsulfonyl)-N-(2-sulfamoylethyl)acetamide], for which the IC50 in experiment [1] was above 10 nM; in experiment [2] it was 77 nM.
As for `COCCN(C)C(=O)c1ccc(-c2ccc3nc(C(C(=O)NCCS(N)(=O)=O)S(=O)(=O)Cc4ccc(C(F)(F)F)cc4)sc3c2)cc1` (centres unmarked) [Example B288, N-(2-methoxyethyl)-N-methyl-4-(2-{[(2-sulfamoylethyl)carbamoyl][4-(trifluoromethyl)phen-yl]methanesulfonylmethyl}-1,3-benzothiazol-6-yl)ben-zamide], the IC50 in experiment [1] was found to be 0.8 nM; in experiment [2] it was 124 nM.
`COCCS(=O)(=O)C(C(=O)NCCS(N)(=O)=O)c1nc2ccc(-c3ccnc(OC)c3)cc2s1` (centres unmarked) [Example B148, 2-((2-methoxyethyl)sul-fonyl)-2-(6-(2-methoxy-4-pyridinyl)-1,3-benzothiazol-2-yl)-N-(2-sulfamoylethyl)acetamide]: the IC50 in experiment [1] is below 10 nM; in experiment [2] it was 13 nM.
`Cc1nnc(CNC(=O)C(c2nc3ccc(-c4cccc(N(C)C)c4)cc3s2)S(=O)(=O)Cc2ccccc2)o1` (centres unmarked) [Example B255, 2-{6-[3-(dimethylamino)phen-yl]-1,3-benzothiazol-2-yl}-N-[(5-methyl-1,3,4-oxadiazol-2-yl)methyl]-2-phenylmethanesulfonyl-acetamide]: the results for the IC50 in experiment [1] and in experiment [2] were 225 nM and 43.5 nM, respectively.
Turning to `Cc1nnc(CNC(=O)C(c2nc3cc(F)c(-c4ccccc4)cc3s2)S(=O)(=O)Cc2ccccc2)o1` (centres unmarked) [Example B153, 2-(benzylsulfonyl)-2-(5-fluoro-6-phenyl-1,3-benzothiazol-2-yl)-N-((5-methyl-1,3,4-oxadiazol-2-yl)methyl)acetamide], the IC50 in experiment [1] is below 10 nM; in experiment [2], 39 nM.
